# Measurements published in US20210045381A1, “FORMULATIONS” (priority 2018, published 2021).
# Assay: Release of pesticide from 3-D printed binary solid objects in a stirred dissolution basket
# Type: physicochemical
# Conditions: for Percentage Release, Water - after 720 min.: from binary solid object T7 (T3 + T4, no surfactant); for Percentage Release, Water - after 720 min. / Percentage Release, Water - after 30 min.: into water; for Percentage Release, S1 - after 30 min. / Percentage Release, S2 - after 30 min.: from binary solid object T7; for Percentage Release, S1 - after 30 min.: into S1 = water with 0.5% w/w Agnique FOH 90C-20; for Percentage Release, S2 - after 30 min.: into S2 = water with 0.5% w/w Agnique FOH 90C-20 and 1% Tween 80
# Protocol: This Example illustrates a binary (two-sectioned) extruded solid object displaying both slow and fast release. The release of pesticide from the 3-D printed binary solid object T7 of Example 2 (containing T3 and T4) was measured. In each experiment three T7 solid objects were added to a dissolution basket which was stirred at 30 rpm. Release was measured into water; into water containing a commercially available surfactant (S1); and into water with two different types of commercially available surfactant (S2). […] Binary solid object T7 released 64% of the pesticide in 720 minutes. The release of the fungicide azoxystrobin in the same time period was only 27%; this was slow release. Release rates into the two surfactant containing media were faster for both pesticides. S1 contained water with 0.5% w/w of Agnique®FOH 90C-20 whereas S2 contained water with 0.5% w/w Agnique®FOH 90C-20 and 1% Tween® 80. Tween® 80 is a non-ionic surfactant: polyoxyethylene (20) sorbitan monooleate.
# This Example illustrates the effect of a surfactant of the release profile of a binary (two-sectioned) extruded solid object. Similarly to Example 3, the releases of pesticides from the 3-D printed binary solid object T8 of Example 2 (containing T5 and T6) were measured; three solid objects T8 were added to a dissolution basket which was stirred at 30 rpm. […] Furthermore, compared to solid object T7 releasing fomesafen into water which already contains a high concentration of the same surfactant (S1 of Example 2), the release from T8 (the formulation with built-in surfactant) was considerably faster (78% versus 39.3% [S1]). […] Similar to the case for fomesafen we also see that the T8 azoxystrobin section (with built-in surfactant) released considerably more of the azoxystrobin than the T7 (surfactant free) solid object releasing into a surfactant solution (37% versus 28.9%).
# [1] = from binary solid object T7 (sections T3 + T4, no surfactant), three objects, basket stirred at 30 rpm, 30 min
# [2] = from binary solid object T7 into water, 720 min
# [3] = from binary solid object T8 (fomesafen section T5, azoxystrobin section T6, both with built-in alkyl ethoxylate surfactant), 30 rpm, 30 min
structure (smiles),measurement,setting,value
CO/C=C(/C(=O)OC)c1ccccc1Oc1cc(Oc2ccccc2C#N)ncn1 [Azoxystrobin],"Percentage Release, Water - after 720 min.","30 rpm, 720 min",27%
same,"Percentage Release, Water - after 30 min.",[1],15.6%
same,"Percentage Release, S1 - after 30 min.","30 rpm, 30 min",28.9%
same,"Percentage Release, S2 - after 30 min.","30 rpm, 30 min",48.3%
same,Release profile (in words),[2],slow release
same,"Percentage Release, Water - after 30 min.",[3],37%
CS(=O)(=O)NC(=O)c1cc(Oc2ccc(C(F)(F)F)cc2Cl)ccc1[N+](=O)[O-] [Fomesafen],Increase of release rate from T8 compared to T7,"factor, water, 30 min, T8 (with surfactant) versus T7 (no surfactant)",three
same,"Percentage Release, Water - after 720 min.","30 rpm, 720 min",64%
same,"Percentage Release, Water - after 30 min.",[1],23.6%
same,"Percentage Release, S1 - after 30 min.","30 rpm, 30 min",39.3%
same,"Percentage Release, S2 - after 30 min.","30 rpm, 30 min",45.9%
same,Release profile (in words),[2],fast release
same,"Percentage Release, Water - after 30 min.",[3],78%
same,Release profile (in words),"from binary solid object T8 into water, 30 min",fast release
